How the values were obtained:
[1] = Jurkat reporter gene cellular assay; assay type: cell-based; settings: Homo sapiens; Jurkat/NF-κB-luc/PD1 + Raji-PD-L1 coculture, OKT3 1 μg/mL, 6 hrs, activation fold; read-out: Cell Activity EC50
Experimental: The effect of compounds of the examples of the present invention and positive compounds on the interaction between PD-1 and PD-L1 expressed on cell surfaces, and the related influence on T cell functions, were determined by a Jurkat reporter gene cellular assay.
Briefly, the reporter gene plasmid of NF-κB-luc and the plasmid of human PD-1 were transfected into Jurkat cells to establish a stably transfected cell line capable of stably expressing both PD-1 and NF-κB-Luc reporter genes; the expression level of PD-1 on the cell surface was confirmed by flow cytometry; and the expression of the reporter gene was confirmed via the response of the reporter gene stimulated by OKT-3 and Raiji cells.
In addition, the plasmid of human PD-L1 was transfected into Raji cells to obtain a cell line capable of stably expressing PD-L1. Jurkat/NF-κB-luc/PD1 cells and Raji-PD-L1 cells were then cocultured and stimulated with OKT-3. On this basis, the compounds were added, and the enhancement of the signal pathway of T cell activation by the inhibitory effect of the compounds on the interaction between PD-1 and PD-L1 was evaluated by readings of reporter gene responses. The specific experimental process was as follows: • 1. 30 μL of compound or antibody solution was added to each well of a white 96-well plate (corning, 3610) at different diluted concentrations, and 10 μL of OKT3 (Biolegend, 317326) was then added (the final concentration of OKT3: 1 μg/mL); • 2. 20 μL of Raji-PD-L1 cell suspension was added to each well with 5*10^4 cells for each well, and was incubated in an incubator for 20 min; • 3. 20 μL of Jurkat/NF-Kb-luc/PD-1 cell suspension was added to each well with 5*10^4 cells for each well, and well mixed, and 6 hrs later, Bright-glo (Promega, E2620) was applied and plates were read on Envision; • 4. The reading of each well treated with the compound was compared with the reading of each well treated with DMSO to obtain the activation fold of the compound; • 5. EC50 values of compounds and positive compounds of the examples of the present invention were determined by non-linear regression analysis of activation folds at different compound concentrations.

[2] = target: interaction between PD-1 and PD-L1 (Homo sapiens (Human), UniProt Q9NZQ7); assay: PD1-PDL1 HTRF binding activity test (Cisbio PD-1/PD-L1 binding assay kit)
Experimental: I. PD1-PDL1 HTRF Binding Activity Test
The effect of compounds of the examples of the present invention on the interaction between PD-1 and PD-L1 was determined by the PD-1/PD-L1 binding assay kit from Cisbio (#64ICP01PEG or 64ICP01PEH). The detailed experimental process was as follows: • 1. Pre-diluted compound solution, 4 μL of Tag1-PD-L1 and 4 μL of Tag2-PD1 were added to each well of a 384-well plate; • 2. After the mixture was incubated at room temperature for 15 min, 5 μL of anti-Tag1-Eu3+ antibody and 5 μL of anti-Tag2-XL665 antibody were then added; • 3. After incubated for 2 hrs at room temperature or overnight at 4° C., plates were read on Envision of Pelkin Elmer; and readings at 665 nm and 620 nm were recorded, and the ratio of the two readings was taken as a reading for each well; • 4. The reading of each well after compound treatment was compared with the reading of DMSO treated wells to obtain the percent inhibition of the compound; • 5. IC50 values of compounds and positive compounds of the examples of the present invention were determined by non-linear regression analysis of percent inhibition at different compound concentrations. II. Jurkat Reporter Gene Cellular Assay

Sequence of interaction between PD-1 and PD-L1 (Q9NZQ7 19-238): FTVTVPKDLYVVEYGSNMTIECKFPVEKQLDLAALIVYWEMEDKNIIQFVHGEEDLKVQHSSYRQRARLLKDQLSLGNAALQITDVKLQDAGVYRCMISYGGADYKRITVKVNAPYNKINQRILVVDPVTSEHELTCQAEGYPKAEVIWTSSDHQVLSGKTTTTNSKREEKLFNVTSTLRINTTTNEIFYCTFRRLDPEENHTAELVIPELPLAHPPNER

Row | Compound | EC50 [1] | IC50 [2]
1 | CC(C)N1CCc2c(nc(/C(F)=C/c3cccc(-c4cccc(NC(=O)c5nc6c(n5C)CCN(CCC57CCC(C(=O)O)(CC5)C7)C6)c4Cl)c3Cl)n2C)C1 [Example 8, (Z)-4-(2-(2-((2,2′-dichloro-3′-(2-fluoro-2-(5-isopropyl-1-methyl-4,5,6,7-tetrahydro-1H-imidazo[4,5-c]pyridin-2-yl)vinyl)-[1,1′-biphenyl]-3-yl)carbamoyl)-1-methyl-1,4,6,7-tetrahydro-5H-imidazo[4,5-c]pyridin-5-yl)ethyl)bicyclo[2.2.1]heptane-1-carboxylic acid] | 97.5 nM | 0.516 nM
2 | COc1cc(/C(F)=C/c2cccc(-c3cccc(NC(=O)c4nc5c(n4C)CCN(CCC46CCC(C(=O)O)(CC4)C6)C5)c3Cl)c2Cl)ncc1CNCCO [Example 16, (Z)-4-(2-(2-((2,2′-dichloro-3′-(2-fluoro-2-(5-(((2-hydroxyethyl)amino)methyl)-4-methoxypyridin-2-yl)vinyl)-[1,1′-biphenyl]-3-yl)carbamoyl)-1-methyl-1,4,6,7-tetrahydro-5H-imidazo[4,5-c]pyridin-5-yl)ethyl)bicyclo[2.2.1]heptane-1-carboxylic acid] | 133 nM | 0.191 nM
3 | COc1cc(/C(F)=C/c2cccc(-c3cccc(NC(=O)c4nc5c(n4C)CCN(C[C@H]4CC[C@H](C(=O)O)CC4)C5)c3C)c2C)ncc1CNC[C@@H]1CCC(=O)N1 [Example 17, (1R,4R)-4-((2-((3′-((Z)-2-fluoro-2-(4-methoxy-5-(((((S)-5-oxopyrrolidin-2-yl)methyl)amino)methyl)pyridin-2-yl)vinyl)-2,2′-dimethyl-[1,1′-biphenyl]-3-yl)carbamoyl)-1-methyl-1,4,6,7-tetrahydro-5H-imidazo[4,5-c]pyridin-5-yl)methyl)cyclohexane-1-carboxylic acid] | 464 nM | 0.331 nM
4 | COc1cc(/C(F)=C/c2cccc(-c3cccc(NC(=O)c4nc5c(n4C)CCN(CCC46CCC(C(=O)O)(CC4)C6)C5)c3Cl)c2Cl)ncc1CN1CCO[C@@H](CO)C1 [Example 69, (R,Z)-4-(2-(2-((2,2′-dichloro-3′-(2-fluoro-2-(5-((2-(hydroxymethyl)morpholino)methyl)-4-methoxypyridin-2-yl)vinyl)-[1,1′-biphenyl]-3-yl)carbamoyl)-1-methyl-1,4,6,7-tetrahydro-5H-imidazo[4,5-c]pyridin-5-yl)ethyl)bicyclo[2.2.1]heptane-1-carboxylic acid] | 116 nM | 
5 | COc1cc(/C(F)=C/c2cccc(-c3cccc(NC(=O)c4nc5c(n4C)CCN(CCC46CCC(C(=O)O)(CC4)C6)C5)c3Cl)c2Cl)ncc1CN1CCO[C@H](CO)C1 [Example 70, (S,Z)-4-(2-(2-((2,2′-dichloro-3′-(2-fluoro-2-(5-((2-(hydroxymethyl)morpholino)methyl)-4-methoxypyridin-2-yl)vinyl)-[1,1′-biphenyl]-3-yl)carbamoyl)-1-methyl-1,4,6,7-tetrahydro-5H-imidazo[4,5-c]pyridin-5-yl)ethyl)bicyclo[2.2.1]heptane-1-carboxylic acid] | 128 nM | 
6 | COc1cc(/C(F)=C/c2cccc(-c3cccc(NC(=O)c4nc5c(n4C)CCN(CCC46CCC(C(=O)O)(CC4)C6)C5)c3Cl)c2Cl)ncc1CN1CC[C@](C)(O)C1 [Example 72, (S,Z)-4-(2-(2-((2,2′-dichloro-3′-(2-fluoro-2-(5-((3-hydroxy-3-methylyrrolidin-1-yl)methyl)-4-methoxypyridin-2-yl)vinyl)-[1,1′-biphenyl]-3-yl)carbamoyl)-1-methyl-1,4,6,7-tetrahydro-5H-imidazo[4,5-c]pyridin-5-yl)ethyl)bicyclo[2.2.1]heptane-1-carboxylic acid] | 116 nM | 
7 | COc1cc(/C(F)=C/c2cccc(-c3cccc(NC(=O)c4nc5c(n4C)CCN(CCC46CCC(C(=O)O)(CC4)C6)C5)c3Cl)c2Cl)ncc1CN1CC[C@H](C(=O)O)C1 [Example 74, (S,Z)-1-((6-(2-(3′-(5-(2-(4-carboxybicyclo[2.2.1]heptan-1-yl)ethyl)-1-methyl-4,5,6,7-tetrahydro-1H-imidazo[4,5-c]pyridine-2-carboxamido)-2,2′-dichloro-[1,1′-biphenyl]-3-yl)-1-fluorovinyl)-4-methoxypyridin-3-yl)methyl)pyrrolidine-3-carboxylic acid] | 136 nM | 
8 | COc1cc(/C(F)=C/c2cccc(-c3cccc(NC(=O)c4nc5c(n4C)CCN(CCC46CCC(C(=O)O)(CC4)C6)C5)c3Cl)c2Cl)ncc1CN1CC[C@](C)(C(=O)O)C1 [Example 76, (S,Z)-1-((6-(2-(3′-(5-(2-(4-carboxybicyclo[2.2.1]heptan-1-yl)ethyl)-1-methyl-4,5,6,7-tetrahydro-1H-imidazo[4,5-c]pyridine-2-carboxamido)-2,2′-dichloro-[1,1′-biphenyl]-3-yl)-1-fluorovinyl)-4-methoxypyridin-3-yl)methyl)-3-methylpyrrolidine-3-carboxylic acid] | 98.1 nM | 

Stronger by EC50 [1], values ahead:

Row | EC50 [1] | IC50 [2] | Compound
9 | 85.8 nM | 0.489 nM | COc1cc(/C(F)=C/c2cccc(-c3cccc(NC(=O)c4nc5c(n4C)CCN(CCC46CCC(C(=O)O)(CC4)C6)C5)c3Cl)c2Cl)ncc1CN1CC(C)(O)C1 [Example 33, (Z)-4-(2-(2-((2,2′-dichloro-3′-(2-fluoro-2-(5-((3-hydroxy-3-methylazetidin-1-yl)methyl)-4-methoxypyridin-2-yl)vinyl)-[1,1′-biphenyl]-3-yl)carbamoyl)-1-methyl-1,4,6,7-tetrahydro-5H-imidazo[4,5-c]pyridin-5-yl)ethyl)bicyclo[2.2.1]heptane-1-carboxylic acid]
10 | 62.2 nM | 0.419 nM | C[C@@H](O)CN1CCc2c(nc(/C(F)=C/c3cccc(-c4cccc(NC(=O)c5nc6c(n5C)CCN(CCC57CCC(C(=O)O)(CC5)C7)C6)c4Cl)c3Cl)n2C)C1 [Example 7, (R,Z)-4-(2-(2-((2,2′-dichloro-3′-(2-fluoro-2-(5-(2-hydroxypropyl)-1-methyl-4,5,6,7-tetrahydro-1H-imidazo[4,5-c]pyridin-2-yl)vinyl)-[1,1′-biphenyl]-3-yl)carbamoyl)-1-methyl-1,4,6,7-tetrahydro-5H-imidazo[4,5-c]pyridin-5-yl)ethyl)bicyclo[2.2.1]heptane-1-carboxylic acid]
11 | 56.5 nM |  | COc1cc(/C(F)=C/c2cccc(-c3cccc(NC(=O)c4nc5c(n4C)CCN(CCC46CCC(C(=O)O)(CC4)C6)C5)c3Cl)c2Cl)ncc1CN1CC[C@H](C)C1 [Example 78, (S,Z)-4-(2-(2-((2,2′-dichloro-3′-(2-fluoro-2-(4-methoxy-5-((3-methylpyrrolidin-1-yl)methyl)pyridin-2-yl)vinyl)-[1,1′-biphenyl]-3-yl)carbamoyl)-1-methyl-1,4,6,7-tetrahydro-5H-imidazo[4,5-c]pyridin-5-yl)ethyl)bicyclo[2.2.1]heptane-1-carboxylie acid]
12 | 54.4 nM |  | COc1cc(/C(F)=C/c2cccc(-c3cccc(NC(=O)c4nc5c(n4C)CCN(CCC46CCC(C(=O)O)(CC4)C6)C5)c3Cl)c2Cl)ncc1CN1CC2CCC1C2 (stereo not drawn) [Example 77, (Z)-4-(2-(2-((3′-(2-(5-((2-azabicyclo[2.2.1]heptan-2-yl)methyl)-4-methoxypyridin-2-yl)-2-fluorovinyl)-2,2′-dichloro-[1,1′-biphenyl]-3-yl)carbamoyl)-1-methyl-1,4,6,7-tetrahydro-5H-imidazo[4,5-c]pyridin-5-yl)ethyl)bicyclo[2.2.1]heptane-1-carboxylic acid]
13 | 42.1 nM |  | COc1cc(/C(F)=C/c2cccc(-c3cccc(NC(=O)c4nc5c(n4C)CCN(CCC46CCC(C(=O)O)(CC4)C6)C5)c3Cl)c2Cl)ncc1CN1CC[C@@](C)(O)C1 [Example 71, (R,Z)-4-(2-(2-((2,2′-dichloro-3′-(2-fluoro-2-(5-((3-hydroxy-3-methylpyrrolidin-1-yl)methyl)-4-methoxypyridin-2-yl)vinyl)-[1,1′-biphenyl]-3-yl)carbamoyl)-1-methyl-1,4,6,7-tetrahydro-5H-imidazo[4,5-c]pyiidin-5-yl)ethyl)bicyclo[2.2.1]heptane-1-carboxylic acid]

— patent US12473282B2, “Biphenyl fluorine double bond derivative, preparation method therefor, and pharmaceutical application thereof” (Abbisko Therapeutics Co., Ltd., priority 2020, dated 2025)
